Format in all cases: cell-based
The test system of assay [1] is KRAS G12D mutant human lung cancer cell A427. The assay can be described thus: 3D cell proliferation inhibition assay, A427. The conditions noted are these: A-427, 168 h, A427, 7 days, CTG, class symbols. The method in brief: (§1)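 For this 7-day anchorage-independent assay, 5×10^2 cells per well were exposed to 10000–0.026 nM test compound with 0.2% DMSO at 37 °C. ATP-based luminescence (CTG) gave viability, and percent inhibition versus DMSO controls was curve-fitted to obtain IC50.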

For assay [2], the system named is KRAS G12D mutant human gastric cancer cell AGS. In words: 3D cell proliferation inhibition assay, AGS. The settings on record: 168 h, 7 days, CTG, class symbols. The method in brief: as §1
The next assay concerns the target T1, KRAS-G12D (Homo sapiens, UniProt P01116, G12D).
T1 construct: endogenous in cells; host or cells: A-427 (ATCC), AGS, AsPc-1, Panc 04.03
In words: KRAS-G12D degradation assay (Western Blot), A-427 cells. The conditions noted are these: A427 cells, 24 h, class symbols; for Dmax: A-427. The method in brief:
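Western blotting of lysates (5 μg protein) quantified KRAS against a β-actin reference after 24 h exposure to compound at final 0.03–3000 nM in 0.25% DMSO. Cells were A-427, AGS, AsPc-1 or Panc 04.03, all KRAS G12D, at 5×10^5/well. Degradation versus control yielded DC50 and Dmax.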
On the technique in general: Immunoblotting shows a protein as a band on a membrane.

A value given as a limit tells only on which side of the number the result lay.

T1 sequence (P01116 1-188 isoform P01116-2 G12D): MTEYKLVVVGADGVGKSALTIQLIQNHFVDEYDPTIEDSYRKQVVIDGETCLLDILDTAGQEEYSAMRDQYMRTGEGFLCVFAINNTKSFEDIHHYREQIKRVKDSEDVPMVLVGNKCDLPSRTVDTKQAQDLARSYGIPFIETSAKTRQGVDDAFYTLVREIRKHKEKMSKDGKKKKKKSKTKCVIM

As usually defined, the IC50 is the point on the concentration scale where inhibition reaches its midpoint. Broadly, the DC50 is the concentration giving 50% degradation. The low end stands for degradation at low concentration, the high end for degradation only at high concentration. One may read the Dmax as the greatest extent of degradation seen. Consider `C#Cc1c(F)ccc2cc(O)cc(-c3ncc4c(N5CC6CCC(C5)N6)nc(OCC5(CN6CCN(CCC7CCN(C(=O)c8ccc(Cl)c(N9CCC(=O)NC9=O)c8)CC7)CC6)CC5)nc4c3F)c12` [Example 3, 1-(5-(4-(2-(4-((1-(((4-(3,8-diazabicyclo[3.2.1]octan-3-yl)-7-(8-ethynyl-7-fluoro-3-hydroxynaphthalen-1-yl)-8-fluoropyrido[4,3-d]pyrimidin-2-yl)oxy)methyl)cyclopropyl)methyl)piperazin-1-yl)ethyl)piperidine-1-carbonyl)-2-chlorophenyl)dihydropyrimidine-2,4(1H,3H)-dione], for which the IC50 in assay [1] was in the range of 1000 to 10000 nM. This compound displayed an IC50 in assay [2] of at most 50 nM. At KRAS-G12D, this compound registered a DC50 of at most 50 nM and a Dmax of 50 to 80%.

Consider `C#Cc1c(F)ccc2cc(O)cc(-c3ncc4c(N5CC6CCC(C5)N6)nc(OCC5(CN6CCN(CCCC7CCN(C(=O)c8ccc(Cl)c(N9CCC(=O)NC9=O)c8)CC7)CC6)CC5)nc4c3F)c12` [Example 4, 1-(5-(4-(3-(4-((1-(((4-(3,8-diazabicyclo[3.2.1]octan-3-yl)-7-(8-ethynyl-7-fluoro-3-hydroxynaphthalen-1-yl)-8-fluoropyrido[4,3-d]pyrimidin-2-yl)oxy)methyl)cyclopropyl)methyl)piperazin-1-yl)propyl)piperidine-1-carbonyl)-2-chlorophenyl)dihydropyrimidine-2,4(1H,3H)-dione], for which the IC50 fell in the range of 100 to 500 nM in assay [1] and 50 to 100 nM in assay [2]. The compound further gave a half-maximal degradation concentration (DC50) at KRAS-G12D of at most 50 nM. The same compound registered a Dmax on KRAS-G12D of 80 to 100%.

`C#Cc1c(F)ccc2cc(O)cc(-c3ncc4c(N5CC6CCC(C5)N6)nc(OCC5(CN6CCN(CCCCC7CCN(C(=O)c8ccc(Cl)c(N9CCC(=O)NC9=O)c8)CC7)CC6)CC5)nc4c3F)c12` [Example 5, 1-(5-(4-(4-(4-((1-(((4-(3,8-diazabicyclo[3.2.1]octan-3-yl)-7-(8-ethynyl-7-fluoro-3-hydroxynaphthalen-1-yl)-8-fluoropyrido[4,3-d]pyrimidin-2-yl)oxy)methyl)cyclopropyl)methyl)piperazin-1-yl)butyl)piperidine-1-carbonyl)-2-chlorophenyl)dihydropyrimidine-2,4(1H,3H)-dione]: the half-inhibitory concentration (IC50) is 50 to 100 nM in assay [1] and at most 50 nM in assay [2]. In addition, the DC50 on KRAS-G12D was at most 50 nM. Further, the greatest degradation seen (Dmax) at KRAS-G12D is 80 to 100%.

Turning to `C#Cc1c(F)ccc2cc(O)cc(-c3ncc4c(N5CC6CCC(C5)N6)nc(OCC5(CN6CCN(CC7CCC8(CC7)CCN(C(=O)c7ccc(Cl)c(N9CCC(=O)NC9=O)c7)CC8)CC6)CC5)nc4c3F)c12` [Example 6, 1-(5-(9-((4-((1-(((4-(3,8-diazabicyclo[3.2.1]octan-3-yl)-7-(8-ethynyl-7-fluoro-3-hydroxynaphthalen-1-yl)-8-fluoropyrido[4,3-d]pyrimidin-2-yl)oxy)methyl)cyclopropyl)methyl)piperazin-1-yl)methyl)-3-azaspiro[5.5]undecane-3-carbonyl)-2-chlorophenyl)dihydropyrimidine-2,4(1H,3H)-dione], the IC50 in assay [1] and in assay [2] was at most 50 nM in each case. At KRAS-G12D, this compound returned a 50% degradation concentration (DC50) of at most 50 nM. In addition, at KRAS-G12D, the Dmax lay in the range of 80 to 100%.

In assay [1], `C#Cc1c(F)ccc2cc(O)cc(-c3ncc4c(N5CC6CCC(C5)N6)nc(OCC5(CN6CCN(CCCC7CCC8(CC7)CCN(C(=O)c7ccc(Cl)c(N9CCC(=O)NC9=O)c7)CC8)CC6)CC5)nc4c3F)c12` [Example 7, 1-(5-(9-(3-(4-((1-(((4-(3,8-diazabicyclo[3.2.1]octan-3-yl)-7-(8-ethynyl-7-fluoro-3-hydroxynaphthalen-1-yl)-8-fluoropyrido[4,3-d]pyrimidin-2-yl)oxy)methyl)cyclopropyl)methyl)piperazin-1-yl)propyl)-3-azaspiro[5.5]undecane-3-carbonyl)-2-chlorophenyl)dihydropyrimidine-2,4(1H,3H)-dione] returned a half-inhibitory concentration (IC50) of at most 50 nM. The IC50 in assay [2] is at most 50 nM. At KRAS-G12D, this compound came in with a DC50 of at most 50 nM and a Dmax of 80 to 100%.

Regarding `C#Cc1c(F)ccc2cc(O)cc(-c3ncc4c(N5CC6CCC(C5)N6)nc(OCC5(CN6CCN(CCCC7CCN(C(=O)c8ccc(OC)c(N9CCC(=O)NC9=O)c8)CC7)CC6)CC5)nc4c3F)c12` [Example 8, 1-(5-(4-(3-(4-((1-(((4-(3,8-diazabicyclo[3.2.1]octan-3-yl)-7-(8-ethynyl-7-fluoro-3-hydroxynaphthalen-1-yl)-8-fluoropyrido[4,3-d]pyrimidin-2-yl)oxy)methyl)cyclopropyl)methyl)piperazin-1-yl)propyl)piperidine-1-carbonyl)-2-methoxyphenyl)dihydropyrimidine-2,4(1H,3H)-dione], the IC50 in assay [1] is 50 to 100 nM; in assay [2], at most 50 nM. For the same compound, the DC50 on KRAS-G12D was at most 50 nM. This compound yielded a maximal degradation (Dmax) on KRAS-G12D of 50 to 80%.

Turning to `C#Cc1c(F)ccc2cc(O)cc(-c3ncc4c(N5CC6CCC(C5)N6)nc(OCC5(CN6CCC(CCOCC7CCN(C(=O)c8ccc(Cl)c(N9CCC(=O)NC9=O)c8)CC7)CC6)CC5)nc4c3F)c12` [Example 10], the IC50 in assay [1] lay within 100 to 500 nM. Also, in assay [2], the half-maximal inhibitory concentration (IC50) is at most 50 nM. Moreover, at KRAS-G12D, the DC50 was at most 50 nM and the Dmax fell in the range of 80 to 100%.

Take `C#Cc1c(F)ccc2cc(O)cc(-c3ncc4c(N5CC6CCC(C5)N6)nc(OCC5(CN6CCC(COCC7CCN(C(=O)c8ccc(Cl)c(N9CCC(=O)NC9=O)c8)CC7)CC6)CC5)nc4c3F)c12` [Example 13, 1-(5-(4-(((1-((1-(((4-(3,8-diazabicyclo[3.2.1]octan-3-yl)-7-(8-ethynyl-7-fluoro-3-hydroxynaphthalen-1-yl)-8-fluoropyrido[4,3-d]pyrimidin-2-yl)oxy)methyl)cyclopropyl)methyl)piperidin-4-yl)methoxy)methyl)piperidine-1-carbonyl)-2-chlorophenyl)dihydropyrimidine-2,4(1H,3H)-dione]: the figures for the concentration for half-maximal inhibition (IC50) in assay [1] and in assay [2] were 50 to 100 nM and at most 50 nM, respectively. This compound also displayed a DC50 at KRAS-G12D of 50 to 100 nM. Besides, on KRAS-G12D, the Dmax is 50 to 80%.

With `C#Cc1c(F)ccc2cc(O)cc(-c3ncc4c(N5CC6CCC(C5)N6)nc(OCC5(CN6CCN(CC7CCC8(CC7)CCN(C(=O)c7ccc(OC)c(N9CCC(=O)NC9=O)c7)CC8)CC6)CC5)nc4c3F)c12` [Example 14, 1-(5-(9-((4-((1-(((4-(3,8-diazabicyclo[3.2.1]octan-3-yl)-7-(8-ethynyl-7-fluoro-3-hydroxynaphthalen-1-yl)-8-fluoropyrido[4,3-d]pyrimidin-2-yl)oxy)methyl)cyclopropyl)methyl)piperazin-1-yl)methyl)-3-azaspiro[5.5]undecane-3-carbonyl)-2-methoxyphenyl)dihydropyrimidine-2,4(1H,3H)-dione], in assay [1], the IC50 is at most 50 nM. The compound also came in with an IC50 in assay [2] of at most 50 nM. Moreover, at KRAS-G12D, the DC50 is at most 50 nM and the greatest degradation seen (Dmax) fell in the range of 80 to 100%.

`CCc1c(F)ccc2cc(O)cc(-c3ncc4c(N5CC6CCC(C5)N6)nc(OCC5(CN6CCN(CC7CCC8(CC7)CCN(C(=O)c7ccc(OC)c(N9CCC(=O)NC9=O)c7)CC8)CC6)CC5)nc4c3F)c12` [Example 15, 1-(5-(9-((4-((1-(((4-(3,8-diazabicyclo[3.2.1]octan-3-yl)-7-(8-ethyl-7-fluoro-3-hydroxynaphthalen-1-yl)-8-fluoropyrido[4,3-d]pyrimidin-2-yl)oxy)methyl)cyclopropyl)methyl)piperazin-1-yl)methyl)-3-azaspiro[5.5]undecane-3-carbonyl)-2-methoxyphenyl)dihydropyrimidine-2,4(1H,3H)-dione] gave an IC50 in assay [1] of at most 50 nM. Moreover, in assay [2], the IC50 is at most 50 nM. On KRAS-G12D, this compound gave a half-maximal degradation concentration (DC50) of at most 50 nM and a maximal degradation (Dmax) of 80 to 100%.

Regarding `Cc1ccc2[nH]ncc2c1-c1ncc2c(N3CC4CCC(C3)N4)nc(OCC3(CN4CCN(CC5CCC6(CC5)CCN(C(=O)c5ccc(Cl)c(N7CCC(=O)NC7=O)c5)CC6)CC4)CC3)nc2c1F` [Example 16, 1-(5-(9-((4-((1-(((4-(3,8-diazabicyclo[3.2.1]octan-3-yl)-8-fluoro-7-(5-methyl-1H-indazol-4-yl)pyrido[4,3-d]pyrimidin-2-yl)oxy)methyl)cyclopropyl)methyl)piperazin-1-yl)methyl)-3-azaspiro[5.5]undecane-3-carbonyl)-2-chlorophenyl)dihydropyrimidine-2,4(1H,3H)-dione], the half-inhibitory concentration (IC50) in assay [1] lay in the range of 100 to 500 nM; in assay [2] it was 1000 to 10000 nM. Further, the DC50 at KRAS-G12D was in the range of 1000 to 10000 nM. The compound further registered a Dmax on KRAS-G12D of 30 to 50%.

For the compound `C#Cc1c(F)ccc2cc(O)cc(-c3ncc4c(N5CC6CCC(C5)N6)nc(OCC5(CN6CCN(CC7CCC8(CC7)CCN(C(=O)c7ccc(OC)c(N9CCC(=O)NC9=O)c7)CC8)CC6)CCC5)nc4c3F)c12` [Example 25, 1-(5-(9-((4-((1-(((4-(3,8-diazabicyclo[3.2.1]octan-3-yl)-7-(8-ethynyl-7-fluoro-3-hydroxynaphthalen-1-yl)-8-fluoropyrido[4,3-d]pyrimidin-2-yl)oxy)methyl)cyclobutyl)methyl)piperazin-1-yl)methyl)-3-azaspiro[5.5]undecane-3-carbonyl)-2-methoxyphenyl)dihydropyrimidine-2,4(1H,3H)-dione], in assay [1], the concentration for half-maximal inhibition (IC50) was 100 to 500 nM. Further, on KRAS-G12D, the DC50 is at most 50 nM and the greatest degradation seen (Dmax) was 50 to 80%.

Source of the values: patent US20260166159A1, “KRAS G12D DEGRADATION AGENT, AND PREPARATION METHOD AND USE THEREFOR” (LEADINGTAC PHARMACEUTICAL (SHAOXING) CO., LTD., priority 2022, published 2026).
